From US20240409581A1, “SMALL-MOLECULE PEPTIDE AND USE THEREOF AGAINST METABOLIC-[…] LIVER DISEASE AND FOR REDUCING BODY WEIGHT” (Tunghai University, priority 2023, published 2024)

Legend:
Assay type in all cases: in vivo, C57BL/6JNarl mice (male)
[1] = tested on: MAFLD-mode mice (diet with 60% kcal fat+30% v/v fructose corn syrup); test: Animal test: body, liver, spleen and white adipose tissue weights of MAFLD-mode mice; settings: for Epididymal white adipose tissue / Final body weight / Liver weight / Mesenteric white adipose tissue / Perirenal white adipose tissue / Spleen weight: eight weeks, high-fat/fructose diet; for Initial body weight: before the eight-week test
Description: (§1) 100 five-week-old C57BL/6JNarl mice (male) were raised in an environment whose temperature was 22-25° C., whose relative humidity was 45%-60%, and which adopted a 12-hour light/12-hour darkness cycle. The mice were fed with common feed and water for three weeks and then randomly divided into 10 groups, whose subsequent treatments are as follows:
Group 1: This was the blank group. The mice in this group were fed with common animal feed and distilled water.
Group 2: This was the control group. The mice in this group were fed with a diet with 60% kcal fat+30% v/v fructose corn syrup (and a 0.5% carboxymethyl cellulose (CMC) solution) and thereby induced to develop into MAFLD-mode mice.
Group 3: This was the low-dosage YF dipeptide group. The mice in this group were fed with the Tyr-Phe dipeptide at a dose of 10 mg/kg/day, in addition to a diet with 60% kcal fat+30% v/v fructose corn syrup.
Group 4: This was the high-dosage YF dipeptide group. The mice in this group were fed with the Tyr-Phe dipeptide at a dose of 50 mg/kg/day, in addition to a diet with 60% kcal fat+30% v/v fructose corn syrup.
Group 5: This was the low-dosage FY dipeptide group. The mice in this group were fed with the Phe-Tyr dipeptide at a dose of 10 mg/kg/day, in addition to a diet with 60% kcal fat+30% v/v fructose corn syrup.
Group 6: This was the high-dosage FY dipeptide group. The mice in this group were fed with the Phe-Tyr dipeptide at a dose of 50 mg/kg/day, in addition to a diet with 60% kcal fat+30% v/v fructose corn syrup.
Group 7: This was the low-dosage EWYF tetrapeptide group. The mice in this group were fed with the Glu-Trp-Tyr-Phe tetrapeptide (which has the sequence of SEQ ID No.: 1) at a dose of 10 mg/kg/day, in addition to a diet with 60% kcal fat+30% v/v fructose corn syrup.
Group 8: This was the high-dosage EWYF tetrapeptide group. The mice in this group were fed with the Glu-Trp-Tyr-Phe tetrapeptide (which has the sequence of SEQ ID No.: 1) at a dose of 50 mg/kg/day, in addition to a diet with 60% kcal fat+30% v/v fructose corn syrup.
Group 9: This was the low-dosage EWFY tetrapeptide group. The mice in this group were fed with the Glu-Trp-Phe-Tyr tetrapeptide (which has the sequence of SEQ ID No.: 2) at a dose of 10 mg/kg/day, in addition to a diet with 60% kcal fat+30% v/v fructose corn syrup.
Group 10: This was the high-dosage EWFY tetrapeptide group. The mice in this group were fed with the Glu-Trp-Phe-Tyr tetrapeptide (which has the sequence of SEQ ID No.: 2) at a dose of 50 mg/kg/day, in addition to a diet with 60% kcal fat+30% v/v fructose corn syrup.
(§2) Each of the four peptides was mixed with 0.5% Carboxymethyl Cellulose (CMC) to form a peptide solution, before the peptide solution was fed into the stomach of each mouse in the corresponding group with a syringe.
(§3) The test lasted eight weeks. The body weights of, and the amounts of food consumed by, the mice in each group were measured and recorded each week. The mice were sacrificed at the end of the test, and the livers, spleens, and white adipose tissue of the mice in each group were weighed.

[2] = tested on: MAFLD-mode mice (diet with 60% kcal fat+30% v/v fructose corn syrup); test: Biochemical analysis of blood (sALT and serum lipid indices) of MAFLD-mode mice; settings: eight weeks
Description: as §1, §2, §3
After the test of example 1, blood samples were taken from the mice in each group, and the serum alanine transaminase (sALT), serum triglyceride (sTG), serum total cholesterol (sTC), serum free fatty acid (sFFA), and serum very-low-density lipoprotein (sVLDL) levels of the blood samples were measured.

[3] = tested on: MAFLD-mode mice (diet with 60% kcal fat+30% v/v fructose corn syrup); test: Analysis of the hepatic lipid content (enzymatic colorimetric method) of MAFLD-mode mice; settings: eight weeks, liver; for hVLDL (hepatic very-low-density lipoprotein): calculated as 1/5 of the hepatic triglyceride level;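 on hTC (hepatic total cholesterol): reported in mg/dL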;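 on hTG (hepatic triglyceride): reported in mg/dL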;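 on hVLDL (hepatic very-low-density lipoprotein): reported in mg/dL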
Description: as §1, §2, §3
After the test of example 1, the mice in each group were sacrificed, and the livers of the mice were collected in order to measure the hepatic lipid content of the liver of each mouse by an enzymatic colorimetric method. The items measured were hepatic triglyceride (hTG), hepatic total cholesterol (hTC), hepatic free fatty acid (hFFA), and hepatic very-low-density lipoprotein (hVLDL), wherein the hVLDL level was calculated as ⅕ of the hepatic triglyceride level.

[4] = baseline of the 10 mg/kg/day group
[5] = baseline of the 50 mg/kg/day group

Substance | Epididymal white adipose tissue ([1]; 10 mg/kg/day into the stomach) | Final body weight ([1]; 10 mg/kg/day into the stomach) | Liver weight ([1]; 10 mg/kg/day into the stomach) | Mesenteric white adipose tissue ([1]; 10 mg/kg/day into the stomach) | Perirenal white adipose tissue ([1]; 10 mg/kg/day into the stomach) | Spleen weight ([1]; 10 mg/kg/day into the stomach) | Epididymal white adipose tissue ([1]; 50 mg/kg/day into the stomach) | Final body weight ([1]; 50 mg/kg/day into the stomach) | Liver weight ([1]; 50 mg/kg/day into the stomach) | Mesenteric white adipose tissue ([1]; 50 mg/kg/day into the stomach) | Perirenal white adipose tissue ([1]; 50 mg/kg/day into the stomach) | Spleen weight ([1]; 50 mg/kg/day into the stomach) | Initial body weight [1, 4] | Initial body weight [1, 5] | sALT (serum alanine transaminase) ([2]; 10 mg/kg/day) | sFFA (serum free fatty acid) ([2]; 10 mg/kg/day) | sTC (serum total cholesterol) ([2]; 10 mg/kg/day) | sTG (serum triglyceride) ([2]; 10 mg/kg/day) | sVLDL (serum very-low-density lipoprotein) ([2]; 10 mg/kg/day) | sALT (serum alanine transaminase) ([2]; 50 mg/kg/day) | further results
Glu-Trp-Phe-Tyr (EWFY) [groups 9 (10 mg/kg/day) and 10 (50 mg/kg/day)] | 1.294 ± 0.330 g | 30.04 ± 1.70 g | 1.028 ± 0.068 g | 0.276 ± 0.081 g | 0.513 ± 0.132 g | 56.6 ± 7.0 mg | 0.983 ± 0.231 g | 28.59 ± 1.82 g | 0.985 ± 0.072 g | 0.234 ± 0.056 g | 0.445 ± 0.077 g | 53.5 ± 5.7 mg | 22.89 ± 1.08 g | 22.78 ± 1.79 g | 45.6 ± 13.91 IU/L | 0.849 ± 0.235 mEq/L | 147.45 ± 25.19 mg/dL | 100.53 ± 20.83 mg/dL | 20.11 ± 4.17 mg/dL | 34.2 ± 16.20 IU/L | sFFA (serum free fatty acid) ([2]; 50 mg/kg/day): 0.757 ± 0.303 mEq/L; sTC (serum total cholesterol) ([2]; 50 mg/kg/day): 135.78 ± 23.48 mg/dL; sTG (serum triglyceride) ([2]; 50 mg/kg/day): 91.47 ± 18.50 mg/dL; sVLDL (serum very-low-density lipoprotein) ([2]; 50 mg/kg/day): 18.29 ± 3.70 mg/dL; hFFA (hepatic free fatty acid) ([3]; 10 mg/kg/day): 111.78 ± 27.75 mEq/L; hTC (hepatic total cholesterol) ([3]; 10 mg/kg/day): 11.04 ± 1.11 mg/dL; hTG (hepatic triglyceride) ([3]; 10 mg/kg/day): 41.45 ± 9.45 mg/dL; hVLDL (hepatic very-low-density lipoprotein) ([3]; 10 mg/kg/day): 8.29 ± 1.89 mg/dL; hFFA (hepatic free fatty acid) ([3]; 50 mg/kg/day): 74.05 ± 19.5 mEq/L; hTC (hepatic total cholesterol) ([3]; 50 mg/kg/day): 5.96 ± 0.91 mg/dL; hTG (hepatic triglyceride) ([3]; 50 mg/kg/day): 22.47 ± 4.84 mg/dL; hVLDL (hepatic very-low-density lipoprotein) ([3]; 50 mg/kg/day): 4.49 ± 0.97 mg/dL
Glu-Trp-Tyr-Phe (EWYF) [groups 7 (10 mg/kg/day) and 8 (50 mg/kg/day)] | 1.146 ± 0.306 g | 29.76 ± 1.77 g | 0.988 ± 0.084 g | 0.263 ± 0.070 g | 0.499 ± 0.060 g | 55.5 ± 6.4 mg | 0.909 ± 0.269 g | 27.42 ± 1.97 g | 0.973 ± 0.089 g | 0.199 ± 0.061 g | 0.418 ± 0.104 g | 51.2 ± 5.9 mg | 22.84 ± 1.71 g | 22.82 ± 1.13 g | 39.3 ± 20.17 IU/L | 0.782 ± 0.309 mEq/L | 139.71 ± 20.52 mg/dL | 96.18 ± 21.42 mg/dL | 19.24 ± 4.28 mg/dL | 27.9 ± 14.00 IU/L | sFFA (serum free fatty acid) ([2]; 50 mg/kg/day): 0.692 ± 0.24 mEq/L; sTC (serum total cholesterol) ([2]; 50 mg/kg/day): 126.96 ± 24.59 mg/dL; sTG (serum triglyceride) ([2]; 50 mg/kg/day): 81.84 ± 20.39 mg/dL; sVLDL (serum very-low-density lipoprotein) ([2]; 50 mg/kg/day): 16.37 ± 4.08 mg/dL; hFFA (hepatic free fatty acid) ([3]; 10 mg/kg/day): 108.17 ± 26.92 mEq/L; hTC (hepatic total cholesterol) ([3]; 10 mg/kg/day): 10.74 ± 1.38 mg/dL; hTG (hepatic triglyceride) ([3]; 10 mg/kg/day): 39.45 ± 9.93 mg/dL; hVLDL (hepatic very-low-density lipoprotein) ([3]; 10 mg/kg/day): 7.89 ± 1.99 mg/dL; hFFA (hepatic free fatty acid) ([3]; 50 mg/kg/day): 87.71 ± 21.90 mEq/L; hTC (hepatic total cholesterol) ([3]; 50 mg/kg/day): 8.19 ± 1.07 mg/dL; hTG (hepatic triglyceride) ([3]; 50 mg/kg/day): 31.49 ± 8.04 mg/dL; hVLDL (hepatic very-low-density lipoprotein) ([3]; 50 mg/kg/day): 6.29 ± 1.61 mg/dL
Phe-Tyr [FY] | 1.328 ± 0.234 g | 30.10 ± 1.29 g | 1.037 ± 0.089 g | 0.289 ± 0.055 g | 0.544 ± 0.077 g | 58.8 ± 7.2 mg | 1.220 ± 0.301 g | 28.93 ± 1.27 g | 0.991 ± 0.078 g | 0.257 ± 0.067 g | 0.487 ± 0.098 g | 54.2 ± 5.6 mg | 22.88 ± 1.09 g | 22.75 ± 1.10 g | 53.1 ± 21.40 IU/L | 1.03 ± 0.338 mEq/L | 158.43 ± 20.37 mg/dL | 106.80 ± 23.45 mg/dL | 21.36 ± 4.69 mg/dL | 42.6 ± 17.60 IU/L | sFFA (serum free fatty acid) ([2]; 50 mg/kg/day): 0.905 ± 0.179 mEq/L; sTC (serum total cholesterol) ([2]; 50 mg/kg/day): 146.76 ± 19.73 mg/dL; sTG (serum triglyceride) ([2]; 50 mg/kg/day): 97.80 ± 22.91 mg/dL; sVLDL (serum very-low-density lipoprotein) ([2]; 50 mg/kg/day): 19.56 ± 4.58 mg/dL; hFFA (hepatic free fatty acid) ([3]; 10 mg/kg/day): 119.27 ± 29.07 mEq/L; hTC (hepatic total cholesterol) ([3]; 10 mg/kg/day): 12.06 ± 1.19 mg/dL; hTG (hepatic triglyceride) ([3]; 10 mg/kg/day): 44.58 ± 6.77 mg/dL; hVLDL (hepatic very-low-density lipoprotein) ([3]; 10 mg/kg/day): 8.92 ± 1.35 mg/dL; hFFA (hepatic free fatty acid) ([3]; 50 mg/kg/day): 112.49 ± 25.02 mEq/L; hTC (hepatic total cholesterol) ([3]; 50 mg/kg/day): 10.97 ± 1.2 mg/dL; hTG (hepatic triglyceride) ([3]; 50 mg/kg/day): 41.49 ± 8.52 mg/dL; hVLDL (hepatic very-low-density lipoprotein) ([3]; 50 mg/kg/day): 8.30 ± 1.70 mg/dL
Tyr-Phe [YF] | 1.452 ± 0.433 g | 30.22 ± 2.07 g | 0.996 ± 0.094 g | 0.298 ± 0.088 g | 0.526 ± 0.069 g | 59.9 ± 8.2 mg | 1.182 ± 0.265 g | 28.98 ± 1.76 g | 0.982 ± 0.085 g | 0.251 ± 0.056 g | 0.481 ± 0.080 g | 53.8 ± 6.4 mg | 22.82 ± 1.01 g | 22.84 ± 1.25 g | 44.4 ± 15.09 IU/L | 0.932 ± 0.336 mEq/L | 155.01 ± 25.12 mg/dL | 103.38 ± 22.62 mg/dL | 20.68 ± 4.52 mg/dL | 36.3 ± 15.97 IU/L | sFFA (serum free fatty acid) ([2]; 50 mg/kg/day): 0.813 ± 0.243 mEq/L; sTC (serum total cholesterol) ([2]; 50 mg/kg/day): 140.70 ± 22.66 mg/dL; sTG (serum triglyceride) ([2]; 50 mg/kg/day): 95.19 ± 24.70 mg/dL; sVLDL (serum very-low-density lipoprotein) ([2]; 50 mg/kg/day): 19.04 ± 4.94 mg/dL; hFFA (hepatic free fatty acid) ([3]; 10 mg/kg/day): 110.93 ± 21.96 mEq/L; hTC (hepatic total cholesterol) ([3]; 10 mg/kg/day): 11.22 ± 1.23 mg/dL; hTG (hepatic triglyceride) ([3]; 10 mg/kg/day): 41.81 ± 8.32 mg/dL; hVLDL (hepatic very-low-density lipoprotein) ([3]; 10 mg/kg/day): 8.36 ± 1.66 mg/dL; hFFA (hepatic free fatty acid) ([3]; 50 mg/kg/day): 98.90 ± 24.07 mEq/L; hTC (hepatic total cholesterol) ([3]; 50 mg/kg/day): 9.76 ± 1.45 mg/dL; hTG (hepatic triglyceride) ([3]; 50 mg/kg/day): 36.95 ± 8.33 mg/dL; hVLDL (hepatic very-low-density lipoprotein) ([3]; 50 mg/kg/day): 7.39 ± 1.67 mg/dL
